# Reference: patent US7736911B2, “Activity-based probes for protein tyrosine phosphatases” (Albert Einstein College of Medicine of Yeshiva University, priority 2004, dated 2010)
# What was measured:
# [1] = test system: PTPs, including PTP1B, HePTP, SHP2, LAR, PTPα, PTPH1, VHR, and Cdc14; test: PTP inactivation by BBP-based probes, several PTPs (pNPP substrate); assay type: biochemical; conditions: for effectiveness at inhibiting PTP activity, I compared with II: pNPP as substrate
# [2] = Solubility in aqueous solution; assay type: physicochemical; conditions: compared with II
# [3] = Stability of probe in buffers and toward nucleophiles (NMR and mass spectrometry)
# [4] = test system: panel of non-PTP enzymes/proteins; assay type: binding
# [5] = test system: total cell lysates from E. coli; assay type: binding
# [6] = test system: PTPs: YopH, PTP1B, HePTP, SHP2, FAP-1, PTPα, DEP-1, VHR, Cdc14, PRL3, low molecular weight PTP; assay type: binding; conditions: pH 6
molecule,measurement,setting,value
arsenate [reference compound],protection of PTP from BBP-mediated inactivation,[1],able to protect PTP from BBP-mediated inactivation
"O=C(CCCCC1SCC2NC(=O)NC21)NCc1ccc(C(Br)P(=O)(O)O)cc1 (stereo not shown) [Compound I, [Bromo-(4-{[5-(2-oxo-hexahydro-thieno[3,4-d]imidazol-6-yl)-pentanoylamino]-methyl}-phenyl)-methyl]-phosphonic acid]",solubility in aqueous solution,[2],better solubility in aqueous solution
same,reaction with nucleophilic agents,"[3]; 48 hours with 100 mM DTT, 50 mM azide or 50 mM cysteine, pH 6 or 7 buffers",did not produce the expected substitution products
same,stability in buffer,[3]; pH 6 buffers,quite stable
same,stability in buffer (solvolysis),[3]; pH>7,significant solvolysis could be detected
same,reactivity towards non-PTP enzymes/proteins,[4],none of the proteins tested were reactive
same,labeling of E. coli proteins,[5],no E. coli proteins were labeled
same,effect of scavenging nucleophiles on rate of PTP inactivation,[1],did not affect the rate
same,reversibility of PTP inactivation,[1]; extensive dialysis and/or buffer exchange of the reaction mixture,irreversible
same,"effectiveness at inhibiting PTP activity, I compared with II",[1],equally effective at inhibiting PTP activity
same,covalent labeling of PTPs,[6],covalently incorporated into all PTPs tested
"O=C(O)CCCC[C@@H]1SC[C@@H]2NC(=O)N[C@@H]21 [biotin, reference compound]",covalent labeling of PTPs,[6],did not label the PTPs
"O=C(CCCCC1SCC2NC(=O)NC21)NCCCCCC(=O)NCc1ccc(C(Br)P(=O)(O)O)cc1 (stereo not shown) [Compound II, {Bromo-[4-({6-[5-(2-oxo-hexahydro-thieno[3,4-d]imidazol-6-yl)-pentanoylamino]-hexanoylamino}-methyl)-phenyl]-methyl}-phosphonic acid]","effectiveness at inhibiting PTP activity, I compared with II",[1],equally effective at inhibiting PTP activity
